This note sets out measurements from patent publication US12419305B2, “Antimicrobial compositions” (Firmenich SA, priority 2018, dated 2025).

Read-outs that look alike come from different tables or passages of the source.

Assay [1] deals with S. aureus ATCC 6538. As to the kind of experiment: BCT test (bacterial contact time), 60 s, log reduction / effect fraction; CI by Compusyn. The class given is cell-based, Staphylococcus aureus. As to conditions: Staphylococcus aureus, ATCC6538, 1 min, 60 s, in 25% EtOH; for log reduction at 0.5 % strength: dose 0.500 % w/v; for log reduction at 0.6 % strength: dose 0.600 % w/v; for log reduction at 0.7 % strength: dose 0.700 % w/v. As for the experimental part: (§1) E. coli, S. aureus, P. aeruginosa, and S. enterica: Separate suspensions of the E. coli ATCC 10536 strain, S. aureus ATCC 6538 strain, Pseudomonas aeruginosa ATCC 15442 strain, and the Salmonella enterica ATCC 10708 strain were prepared as follows: Stock cultures (stored at −80° C.) were thawed and sub-cultured onto Tryptic Soy Agar (TSA) agar plate media, and incubated at 37° C. for 24 h to obtain single colonies. Single colonies of the primary cultures were streaked onto TSA plates and incubated at 37° for 24 h to generate secondary cultures. Single colonies of secondary cultures picked and used to inoculate into 50 mL of TSB broth. The inoculated TSB broth was incubated at 37° C. at 180 rpm for 18 h. Aliquots (0.5 ml) of the 18 h culture were inoculated into 50 ml of fresh TSB broth, and incubated at 37° C. at 180 rpm for 2-3 hours. When the OD600 nm value of the broth reached 1-2, cells were harvested by centrifugation at 5000 rpm for 10 min, and then resuspended in fresh TSB broth at a concentration of 1-5×10^8 CFU/mL. These suspensions were used as the bacterial suspensions for the BCT test.
(§2) BCT Test: Test compositions at a range of concentrations (either combinations of more than one perfume ingredient, and comparative compositions comprising the single perfume ingredients) were prepared in ethanol. Five replicates of each test composition were added into 96-well microtiter plates (120 μl per well), with row B containing control compositions containing the ethanol solution alone. 120 μl of bacterial cell suspensions at a concentration of approximately 1×10^8 bacteria per mL (as prepared above) were added to each well of the microtiter plate. The bacterial suspensions were incubated with the test solutions for 45, 60, or 120 seconds. Following the incubation of the bacterial suspensions with the test solutions, serial dilutions of the bacterial suspensions were generated (three serial 1:10 dilutions, followed by 17 serial 1:2 dilutions), in multiwell microtiter plates.
(§3) Each plate was sealed and incubated at 37° C. under agitation (180 rpm). After incubation, the turbidity of the wells (OD600 nm) was determined using a Tecan microplate reader. Turbid wells were regarded as positive growth, due to the presence of viable cells. The total number of viable cells (log CFU) for each sample was calculated. And the log reduction for each test composition at the final concentration (dose) was calculated against the control sample of the ethanol solution.
(§4) Determination of Synergy via the Combination Index (CI): The CI was calculated using Compusyn software (ComboSyn, Inc., as created by Dr. Dorothy Chou in 2005), according to the manufacturer's instructions. The concentration of each test composition (combinations of more than one perfume ingredient, and comparative compositions comprising the single perfume ingredients used to generate the combination) and their corresponding effect fraction was entered, and the corresponding CI calculated.
(§5) When the calculated CI values were less than 0.9, the combination of perfume ingredients was regarded as having synergistic effect. When the calculated CI was between 1.0 a 0.9, the combination of perfume ingredients was regarded as having an additive effect. When the calculated CI was greater than 1.0, the combination of perfume ingredients was regarded as having an antagonistic effect.

For assay [2], the system named is E. coli ATCC 10536. In words: BCT test (bacterial contact time), 45 s, log reduction / effect fraction; CI by Compusyn. Type of assay: cell-based, Escherichia coli. Particulars: 45 s, in 20% EtOH; for log reduction at 0.55 % strength: dose 0.550 % w/v; for log reduction at 0.6 % strength: dose 0.600 % w/v. As for the experimental part: as §1, §2, §3, §4, §5
The test system of assay [3] is Pseudomonas aeruginosa ATCC 15442. In words: BCT test (bacterial contact time), 60 s, log reduction / effect fraction; CI by Compusyn. The class given is cell-based. As to conditions: BCT 60 s, in 25% EtOH; for log reduction at 0.3 % strength: Dose 0.3 % w/v; for log reduction at 0.45 % strength: Dose 0.45 % w/v. The method, then:
as §1, §2, §3, §4, §5

Setting [4] is: Escherichia coli, ATCC10536, 45 s.
The mark [5] stands for this setting: Pseudomonas aeruginosa, ATCC15442, 1 min.
Where [6] appears, read: Escherichia coli, ATCC10536, 45 s, read-out: Log reduction.
Where [7] appears, read: Pseudomonas aeruginosa, ATCC15442, 1 min, read-out: Log reduction.

For the compound `O=Cc1ccc2c(c1)OCO2` [Heliotropine, 1,3-benzodioxole-5-carbaldehyde], in assay [1], the log reduction at 0.5 % strength was determined as 0.7, the log reduction at 0.6 % strength was found to be 2.7 and the log reduction at 0.7 % strength came out at 6.1. For the same compound, the log reduction at 0.75 % strength in assay [1] (dose 0.750 % w/v) amounted to 7.1. Besides, the log reduction at 1 % strength in assay [1] (dose 1.000 % w/v) amounted to 7.1. Moreover, the log reduction at 0.45 % strength in assay [2] (Escherichia coli, ATCC10536, 45 s, dose 0.450 % w/v) was found to be 0.1. Moreover, in assay [2] (setting [4]), the log reduction at 0.55 % strength amounted to 5.3 and the log reduction at 0.6 % strength stood at 7.3. The Log reduction in assay [2] (dose 0.450 % w/v) was found to be 0.1. Besides, the Log reduction in assay [3] (Dose 0.2 % w/v) was found to be 0.00. The log reduction at 0.2 % strength in assay [3] (Pseudomonas aeruginosa, ATCC15442, 1 min, Dose 0.2 % w/v) was found to be 0. Besides, in assay [3] (setting [5]), the log reduction at 0.3 % strength stood at 0.6 and the log reduction at 0.45 % strength came out at 4.1. Also, the log reduction at 0.4 % strength in assay [3] (Pseudomonas aeruginosa, ATCC15442, 1 min, Dose 0.4 % w/v) worked out at 3.4. Further, in assay [3] (Pseudomonas aeruginosa, ATCC15442, 1 min, Dose 0.55 % w/v), the log reduction at 0.55 % strength came to 7.6.
As for `COc1ccc(C=O)cc1` [Aldehyde Anisic, 4-methoxybenzaldehyde], in assay [1] (read-out: Log reduction), the log reduction at 0.5 % strength is 0.7, the log reduction at 0.6 % strength was found to be 2.3 and the log reduction at 0.7 % strength was 5.9. Besides, the log reduction at 0.65 % strength in assay [1] (dose 0.650 % w/v) is 3.5. Moreover, the log reduction at 0.8 % strength in assay [1] (dose 0.800 % w/v) came to 6.9. For the same compound, the log reduction at 0.4 % strength in assay [2] (Escherichia coli, ATCC10536, 45 s, dose 0.400 % w/v) was determined as 0.3. Also, in assay [2] (Escherichia coli, ATCC10536, 45 s, dose 0.450 % w/v, read-out: Log reduction), the log reduction at 0.45 % strength stood at 0.6. The log reduction at 0.5 % strength in assay [2] (Escherichia coli, ATCC10536, 45 s, dose 0.500 % w/v) was determined as 2.7. In assay [2] (setting [6]), the log reduction at 0.55 % strength turned out to be 6.7 and the log reduction at 0.6 % strength is 7.3. In assay [3] (setting [7]), the log reduction at 0.3 % strength is 0.6 and the log reduction at 0.45 % strength stood at 6.2. In assay [3] (Pseudomonas aeruginosa, ATCC15442, 1 min, Dose 0.35 % w/v), the log reduction at 0.35 % strength was 1.6. The log reduction at 0.475 % strength in assay [3] (Pseudomonas aeruginosa, ATCC15442, 1 min, Dose 0.475 % w/v) was determined as 5.9. Further, the log reduction at 0.5 % strength in assay [3] (Pseudomonas aeruginosa, ATCC15442, 1 min, Dose 0.5 % w/v) worked out at 7.
